Results: US6350729B1, “Inhibition of nitric oxide-mediated hypotension and septic shock with iron-containing hemoprotein” (Board of Regents, The University of Texas System, priority 1992, dated 2002)
Read-outs that look alike come from different tables or passages of the source.

Columns and labels:
blood pressure [1] = conditions: guinea pigs; cited from earlier work
blood pressure [2] = conditions: rabbits; cited from earlier work
[3] = test system: endotoxin-induced hypotension; experiment: Endotoxin-induced hypotension in anesthetized dog, mean arterial blood pressure; assay type: in vivo
Method: Experiments were carried out on conditioned mongrel dogs weighing 23-28 kg. Animal care was in accordance with the recommendations of the American Association for Accreditation of Laboratory Animal Care and met all standards prescribed by the Guide for the Care and Use of Laboratory Animals (Committee on Care and Use of Laboratory Animals (1978) Guide for the Care and Use of Laboratory Animals (Natl. Inst. Health, Bethesda, Md.) DHEW Publ. No. (NIH) 78-83.
The dog was fasted overnight before the day of the experiment and was anesthetized with pentobarbital (25 mg/kg, i.v.), orotracheally intubated and ventilated with a Harvard pump at a nominal rate of 12 breaths per minute and a tidal volume of 15 ml/kg. The dog was instrumented with a cordis for the introduction of a Swan-ganz catheter for measurement of central venous and pulmonary arterial pressures as well as an arterial line for continuous blood pressure monitoring via a computer driven analog to digital processor.
After the blood pressure and heart rate was stabilized, endotoxin was administered to the dog as a bolus injection (50 μg/kg, i.v. in 10 ml DPBS. After the onset of hypotension, a rapid infusion of 50 ml hemoglobin (5.0 g commercially available bovine hemoglobin/100 ml) over 20 seconds was administered by a central venous catheter. Cardiovascular changes were monitored for an additional 12 hrs. after hemoglobin administration.
A tracing depicting endotoxin-induced hypotension, its inhibition by hemoglobin, and subsequent administration of bovine serum albumin (5 grams) is shown in FIG. 1. Mean arterial blood pressure declined from 160 mm Hg to 70 mm Hg two hours after endotoxin administration. The hemoglobin (HgB) was subsequently administered as an intravenous bolus. […] This effect lasted approximately 45 minutes before the blood pressure decline resumed. […] On repetition of this experiment, substantially the same results were obtained.

rabbit aortic rings = conditions: cited from earlier work
[4] = Kinetic 96-well microplate assay, capture of NO by Fe2+-myoglobin; assay type: biochemical; conditions: 5 μM Mb, endothelial cell cytosol, 500 μM L-arginine, 500 μM NADPH, 80 mM TRIS pH 7.6, 25° C.
Method: Nitric oxide formation by endothelial cell cytosol was measured by a novel kinetic 96-well microplate assay. The assay is based on the capture of NO by Fe^2+-myoglobin (Mb) which is subsequently oxidized to Fe^3+-myoglobin. The process of heme oxidation was continuously measured in a kinetic microplate reader (Molecular Devices, Menlo Park Calif.) as the rate of change in OD405-OD650. Data points were collected from all 96 wells every 16 sec. for 30 minutes at 25° C. with shaking prior to each OD measurement. The slope of the best fit regression line (OD/min) was used to calculate the rate of NO-synthesis. OD/min measurements were converted to pmoles NO/min by dividing by the increase in OD405-OD650 measured upon complete oxidation of 1 pmole of reduced Mb with a 10-fold molar excess of potassium ferricyanide. Under the conditions employed, the efficiency of NO capture by Mb approached 100%; neither doubling nor halving the concentration of Mb influenced the Mb oxidation rate. All samples contained 5-30 μl of endothelial cell cytosol (1-6 mg protein/ml) and final concentrations of 5 μM Mb, 500 μM L-arginine, 500 μM NADPH and 80 Mm TRIS, pH 7.6.
Fe^2+-Myoglobin Preparation: 2 mM myoglobin (from horse skeletal muscle, Sigma) was reduced with a sodium dithionite and immediately applied to a Sephadex G-25 column, followed by elution with 50 Mm TRIS buffer, Ph 7.6. […]

CNC(=N)NCCC[C@H](N)C(=O)O [N^G-methyl-L-arginine]
effect on blood pressure (blood pressure [1]): increase blood pressure
effect on blood pressure (blood pressure [2]): increase blood pressure

bovine serum albumin: bovine serum albumin (5 grams) given as protein comparison after hemoglobin [reference compound]
subsequent blood pressure decline ([3]; endotoxin-induced hypotension, 5 grams given after the hemoglobin effect ended): only slightly influenced

hemoglobin: commercially available bovine hemoglobin, 5.0 g/100 ml, iron hemoprotein given intravenously
endothelium-dependent relaxation induced by acetylcholine or by A23187 (rabbit aortic rings; 1 μM): reduced
endothelium-dependent relaxation induced by acetylcholine or by A23187 (rabbit aortic rings; 10 μM): abolished
endotoxin-induced mean arterial decline (FIG. 1) ([3]; FIG. 1 legend): interrupted
duration of effect before the blood pressure decline resumed ([3]; endotoxin 50 μg/kg i.v., 50 ml of 5.0 g/100 ml bovine hemoglobin over 20 seconds): approximately 45 minutes
blood pressure drop ([3]; endotoxin 50 μg/kg i.v., intravenous bolus after mean arterial pressure fell from 160 to 70 mm Hg at two hours): abrogated
hypotension ([3]; endotoxin 50 μg/kg i.v., intravenous bolus after onset of hypotension): partially reversed

B1: Mb: myoglobin from horse skeletal muscle, Sigma, reduced to Fe2+ form (protein, UniProt P68082 2-154, looked up)
Myoglobin: GLSDGEWQQVLNVWGKVEADIAGHGQEVLIRLFTGHPETLEKFDKFKHLKTEAEMKASEDLKKHGTVVLTALGGILKKKGHHEAELKPLAQSHATKHKIPIKYLEFISDAIIHVLHSKHPGDFGADAQGAMTKALELFRNDIAAKYKELGFQG
efficiency of NO capture [4]: ~100%
